Values of other authors, collected in patent US10194661B2, “Methods of making dazomet compositions” (priority 2013, dated 2019).

What was measured:
[1] = tested on: bees such as honeybees; conditions: application to wood, which prevents exposure to bees

## CN=C=S [MITC, methyl isothiocyanate]
Dazomet exposed to wood or moist soils
  share of dazomet decomposition products (major product): approximately 98%

## CN1CSC(=S)N(C)C1 [dazomet, Tetrahydro-3,5-dimethyl-2H-1,3,5-thiadiazine-2-thione]
In wood
  theoretical maximum decomposition rate / stoichiometric conversion rate to MITC: approximately 45%
[1]
  toxicity to bees: relatively non-toxic and harmless
